Measurements published in patent publication US20110034551A1, “METHODS OF INCREASING SARCOSINE LEVELS FOR TREATING SCHIZOPHRENIA” (BG MEDICINE, INC., priority 2007, published 2011).

Columns and labels:
plasma sarcosine = assay: 28-day oral dosing study in rats, plasma sarcosine abundance by Polar LC/MS and GC/MS; type: in vivo, rat; details: 300 mg/kg daily oral, end of 28-day treatment
Excerpt: Fenofibrate (Sigma F-6020, Lot. 064K1584) and MPC-1 (Mitsubishi Pharma Corporation, Lot. F) were used in this study. These test substances were stored at room temperature.
Seventy-three male Crj:CD(SD)IGS rats (4.5 weeks old) were quarantined and acclimated for seven days after receipt. Two days before the initiation of dosing (Day −2), rats which had no abnormalities in clinical observation and body weight during the quarantine and acclimation period were selected and assigned to 5 groups using the stratified-by-weight randomization method to yield approximately the same mean body weights amongst the study groups.
The rats were dosed by oral gavage using a disposable stomach tube connecting to a syringe, at the dose volume of 5 mL/kg. The dosing was conducted once daily for 28 days. A control group was dosed with the vehicle only. Individual doses were calculated based on the most recently recorded body weights.
Preparation of dosing suspensions was as follows. The specified amount of test substance for each dose level was weighed and crushed with an agate mortar and a pestle. […]
Based on the total number of samples, the batches of samples were set up according to a batching scheme. Each sample was analyzed in duplicate. […] Each batch is analyzed in one analytical run. […]
All compounds eluting from the GC/MS column were detected in full scan mode. […]

[1] = target: T1, type 1 glycine transporter, GLYT1 (Rattus norvegicus, UniProt P28572); details: rat brain aggregates; Atkinson, et al. 2001; read-out: IC50 for inhibition of glycine transport; cited from earlier work
T1 construct: glycine transport in rat brain aggregates; host or cells: rat brain aggregates (endogenous protein)
T1 sequence (P28572 1-638): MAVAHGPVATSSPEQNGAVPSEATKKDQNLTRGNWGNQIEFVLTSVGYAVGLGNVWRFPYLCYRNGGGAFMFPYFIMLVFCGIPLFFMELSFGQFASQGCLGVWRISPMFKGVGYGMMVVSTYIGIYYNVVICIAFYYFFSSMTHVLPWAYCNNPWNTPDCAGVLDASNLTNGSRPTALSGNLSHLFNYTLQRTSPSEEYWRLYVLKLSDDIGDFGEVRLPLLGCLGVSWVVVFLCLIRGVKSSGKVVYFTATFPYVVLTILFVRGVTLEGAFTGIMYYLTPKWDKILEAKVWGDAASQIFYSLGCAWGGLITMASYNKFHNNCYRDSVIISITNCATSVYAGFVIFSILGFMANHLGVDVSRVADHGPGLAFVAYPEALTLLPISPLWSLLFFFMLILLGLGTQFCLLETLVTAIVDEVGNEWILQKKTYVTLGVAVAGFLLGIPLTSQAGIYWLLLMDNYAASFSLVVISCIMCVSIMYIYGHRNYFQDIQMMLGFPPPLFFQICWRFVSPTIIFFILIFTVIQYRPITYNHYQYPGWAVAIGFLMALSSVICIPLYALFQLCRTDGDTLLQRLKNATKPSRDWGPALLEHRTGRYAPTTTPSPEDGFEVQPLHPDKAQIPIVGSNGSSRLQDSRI

glycine transport = details: other studies; read-out: IC50 for inhibition of glycine transport; cited from earlier work
schizophrenia = details: 2 g/day as add-on therapy to certain antipsychotics (but not clozapine), schizophrenia patients; cited from earlier work

Row | SMILES | median fold change in plasma sarcosine abundance relative to vehicle (plasma sarcosine; GC/MS platform) | median fold change in plasma sarcosine abundance relative to vehicle (plasma sarcosine; Polar LC/MS platform) | IC50 [1] | IC50 (glycine transport) | effect on symptoms of schizophrenia (schizophrenia)
1 | CC(C)OC(=O)C(C)(C)Oc1ccc(C(=O)c2ccc(Cl)cc2)cc1 [fenofibrate] | 3.74 | 4.25 | – | – | –
2 | CNCC(=O)O [sarcosine, N-methylglycine] | – | – | 13 µM | ~100 µM | additional reductions in both positive and negative symptomatology
